Non-standard residues stand in square brackets, D forms with d. Residues, ends and D or L forms follow the SMILES beside them. Nle = CCCC[C@H](N)C(=O)O; βAla = NCCC(=O)O
What was measured:
[1] = molecular target: BB1 receptor (Homo sapiens, UniProt P28336); conditions: from Smart (1998); cited from earlier work
[2] = molecular target: BB2 receptor (Homo sapiens, UniProt P30550); conditions: from Smart (1998); cited from earlier work
[3] = system: cerebellar granule cells; assay: Glutamate-induced excitotoxicity in cerebellar granule cells; type: cell-based
Source text: However, in the cerebellar granule cells [D-Phe^6, βAla^11, Phe^13, Nle^14]Bombesin(6-14) had no effect on glutamate-induced excitotoxicity.

[4] = system: organotypic hippocampal slice cultures; assay: Oxygen/glucose deprivation model in organotypic hippocampal slice cultures; type: cell-based
[5] = system: hippocampal neurones; assay: Neurotoxicity assay (MTT cell survival) in primary hippocampal cell culture; type: cell-based, rat; conditions: sub-maximal neurotoxicity by Mg-free Locke's solution with glycine and histamine, MTT 24 h after insult
Experimental: Hippocampi were isolated from embryonic Sprague Dawley rats (gestational age 17.5 days; Charles River), incubated with 0.08% (w/v) trypsin, and dissociated in Neurobasal medium containing 10% heat-inactivated fetal calf serum (Skaper et al.(1990) Methods in Neurosciences, Vol. 2 (Conn P. M., ed), pp. 17-33 Academic Press, San Diego). Cells were pelleted by centrifugation (200 g, 5 min) and resuspended in Neurobasal medium containing B27 supplements (with antioxidants), 25 μM glutamate, 1 mM sodium pyruvate, 2 mM L-glutamine, 50 U/ml penicillin, and 50 μg/ml streptomycin. The cell suspension was plated onto poly-D-lysine (10 μg/ml) coated 48-well culture plates (Nunc), at a density of 4.5×10^4 cells per cm^2. Cultures were maintained at 37° C. in a humidified atmosphere of 5% CO2-95% air. […]
Cultures were washed once with Locke's solution (pH 7.0-7.4) (Skaper et al. (1990) supra) with or without 1 mM magnesium chloride (MgCl2). […] Cell survival was quantified 24 h after the insult by a colorimetric reaction with 3-(4,5-dimethylthiazol-2-yl)-2,5-diphenyltetrazolium bromide (MTT) (Mosmann (1983) J. Immunol. Methods 65:55-63; Manthorpe et al. (1986) Dev. Brain Res. 25:191-198; Skaper et al., (1990) supra). Absolute MTT values obtained were normalized and expressed as a percentage of sham-treated sister cultures (defined as 100%).

[6] = molecular target: T1, endogenous human BRS-3 in NCI-N417 cells (Homo sapiens, UniProt P32247); assay: Agonist pharmacology, FLIPR intracellular calcium (Fluo-3AM) in NCI-N417 cells; type: cell-based
T1 construct: Agonist Pharmacology at the Endogenous Human BRS-3 in NCI-N417 Cells; endogenous in cells; host or cells: NCI-N417 cells
T1 sequence (P32247 1-399): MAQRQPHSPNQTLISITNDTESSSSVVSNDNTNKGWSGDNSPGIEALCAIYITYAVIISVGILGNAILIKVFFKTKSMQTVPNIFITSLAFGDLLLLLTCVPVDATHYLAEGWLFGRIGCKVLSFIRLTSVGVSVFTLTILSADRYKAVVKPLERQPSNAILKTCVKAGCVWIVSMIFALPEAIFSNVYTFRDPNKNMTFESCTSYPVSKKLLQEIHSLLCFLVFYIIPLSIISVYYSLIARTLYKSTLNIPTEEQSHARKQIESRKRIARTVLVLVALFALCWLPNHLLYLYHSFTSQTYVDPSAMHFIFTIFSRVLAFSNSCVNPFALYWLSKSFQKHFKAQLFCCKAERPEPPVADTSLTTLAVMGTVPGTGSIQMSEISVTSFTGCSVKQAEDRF
Experimental: Agonist Pharmacology at the Endogenous Human BRS-3 in NCI-N417 Cells
NCI-N417 cells were seeded into Costar 96 well black walled plates (30,000 cells per well), cultured overnight in RPMI 1640 medium containing 10% foetal calf serum and 1% L-glutamine, and then loaded with the cytoplasmic calcium indicator Fluo-3AM (4 μM) in the presence of 2.5 mM probenecid at 37° C. for 60 min. The cells were then washed 4× with, and finally resuspended in, Tyrode's medium containing 2.5 mM probenecid. Fluorescence was then monitored using a FLIPR (λEX=488 nm, λEM=540 nm) before and after the addition of various ligands (10 pM-10 μM), as described previously (Smart et al (1999). Br. J. Pharmacol. 128:1-4).

[7] = molecular target: T2, BRS3 (Homo sapiens, UniProt P32247); conditions: background statement, in words; cited from earlier work
T2 sequence (P32247 1-399): T1 sequence (P32247 1-399)

Sequence of BB1 receptor (P28336 whole entry): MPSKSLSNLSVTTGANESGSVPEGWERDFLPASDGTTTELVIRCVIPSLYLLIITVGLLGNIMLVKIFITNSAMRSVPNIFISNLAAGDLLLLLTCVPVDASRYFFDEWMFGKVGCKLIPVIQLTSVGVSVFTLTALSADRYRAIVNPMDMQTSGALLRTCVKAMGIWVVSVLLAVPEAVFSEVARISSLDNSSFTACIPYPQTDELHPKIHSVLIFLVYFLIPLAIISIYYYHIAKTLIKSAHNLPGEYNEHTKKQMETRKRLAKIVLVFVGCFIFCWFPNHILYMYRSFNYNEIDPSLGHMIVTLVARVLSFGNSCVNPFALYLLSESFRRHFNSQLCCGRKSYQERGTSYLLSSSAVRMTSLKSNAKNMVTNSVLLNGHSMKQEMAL
Sequence of BB2 receptor (P30550 whole entry): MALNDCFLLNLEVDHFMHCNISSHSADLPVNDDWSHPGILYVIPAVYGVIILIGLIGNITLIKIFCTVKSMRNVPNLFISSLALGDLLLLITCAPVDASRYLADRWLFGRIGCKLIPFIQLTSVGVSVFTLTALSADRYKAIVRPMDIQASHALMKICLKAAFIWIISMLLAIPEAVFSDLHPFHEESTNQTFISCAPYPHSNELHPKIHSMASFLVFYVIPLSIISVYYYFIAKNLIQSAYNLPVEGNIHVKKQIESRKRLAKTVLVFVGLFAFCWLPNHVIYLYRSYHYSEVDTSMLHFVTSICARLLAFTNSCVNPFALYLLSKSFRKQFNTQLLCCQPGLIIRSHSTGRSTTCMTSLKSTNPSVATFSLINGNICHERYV

| Compound | affinity at the BB1 receptor [1] | activity at the BB2 receptor [2] | effect on glutamate-induced excitotoxicity [3] | neuroprotection [4] | pEC50 for inhibition of damage [5] | EC50 [6] | Efficacy ([6]; calcium mobilisation, FLIPR, NCI-N417 cells, efficacy in words) | affinity at BRS3 [7] |
| --- | --- | --- | --- | --- | --- | --- | --- | --- |
| CC(C)c1cccc(C(C)C)c1NC(=O)N[C@@](C)(Cc1c[nH]c2ccccc12)C(=O)NCC1(c2ccccn2)CCCCC1 [PD 165929] | 7.6 nM | inactive | – | – | – | – | – | – |
| CCCC[C@H](NC(=O)[C@H](Cc1ccccc1)NC(=O)[C@H](Cc1c[nH]cn1)NC(=O)CCNC(=O)[C@@H](NC(=O)[C@H](C)NC(=O)[C@H](Cc1c[nH]c2ccccc12)NC(=O)[C@H](CCC(N)=O)NC(=O)[C@H](N)Cc1ccccc1)C(C)C)C(N)=O [[D-Phe^6, βAla^11, Phe^13, Nle^14]Bombesin(6-14)] (H-[dF]QWAV[βAla]HF[Nle]-NH2; N-terminus and C-terminus assumed) | – | – | no effect | neuroprotective | 7.3±0.1 | 13.2 nM | full | low nM affinity |

Reference: patent US20040023862A1, “Uses of bombesin receptor 3” (SmithKline Beedham p. l. c., priority 2000, published 2004)
